The target in test [1] is menin/MLL (terbium chelate-labeled menin, FITC-MBM1 peptide) (Homo sapiens (Human), UniProt O00255). Put plainly: Menin/MLL homogenous time-resolved fluorescence (HTRF) assay.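 Also: IC50 from percent inhibition of HTRF signal, normalized between wells without competitor and wells with a saturating competitor that displaces FITC-MBM1 from His-tagged menin.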 The format is binding.
Test [2] deals with MOLM14 cells. In words: Proliferation assay (spheroid growth, 8 days), MOLM14.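 Also: spheroid size read as confluence by live-cell imaging, compounds added at a range of concentrations with 0.3% DMSO, DMSO-treated wells = 0%, highest reference dose = low control.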 The format is cell-based, human. To be noted: MOLM14, 8 days, read-out: spheroid assay_OneTime MOLM14 IC50.
Test [3] has as its system OCI-AML3 cells. Put plainly: Proliferation assay (spheroid growth, 8 days), OCI-AML3. In kind it is cell-based, human. To be noted: OCI-AML3, 8 days. The essentials: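 IC50 values derive from day-8 spheroid confluence, normalized between DMSO-treated wells and the highest dose of a reference compound, fitted with a variable slope. Cells grew 8 days at 37° C under a compound concentration series in 0.3% DMSO.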

In test [4] the test system is KO-52 cells. In words: Proliferation assay (spheroid growth, 8 days), KO-52 control cell line. The format is cell-based, human. To be noted: read-out: spheroid assay_OneTime KO-52 IC50. The protocol:
The anti-proliferative effect of menin/MLL protein/protein interaction inhibitor test compounds was assessed in human leukemia cell lines. The cell line MOLM14 harbors a MLL translocation and expresses the MLL fusion protein MLL-AF9, respectively, as well as the wildtype protein from the second allele. OCI-AML3 cells that carry the NPM1c gene mutation were also tested. […] KO-52 was used as a control cell line containing two MLL (KMT2A) wildtype alleles in order to exclude compounds that display general cytotoxic effects.
KO-52 and OCI-AML3 cell lines were propagated in alpha-MEM (Sigma Aldrich) supplemented with 20% heat-inactivated fetal bovine serum (HyClone), 2 mM L-glutamine (Sigma Aldrich) and 50 μg/ml gentamycin (Gibco).
In order to assess the anti-proliferative effects, 200 MOLM14 cells, 200 OCI-AML3 cells or 300 KO-52 cells were seeded in 200 μl media per well in […] round bottom, ultra-low attachment plates (Costar, catalogue number 7007). Cell seeding numbers were chosen based on growth curves to ensure linear growth throughout the experiment. Test compounds were added at different concentrations and the DMSO content was normalized to 0.3%. Cells were incubated for 8 days at 37° C. and 5% CO2. Spheroid like growth was measured in real-time by live-cell imaging (IncuCyteZOOM, Essenbio, 4× objective) acquiring images at day 8. Confluence (%) as a measure of spheroid size was determined using an integrated analysis tool.
In order to determine the effect of the test compounds over time, the confluence in each well as a measure of spheroid size, was calculated. Confluence of the highest dose of a reference compound was used as baseline for the LC (Low control) and the confluence of DMSO treated cells was used as 0% cytotoxicity (High Control, HC).
GraphPad Prism(version 7.00) was used to calculate the IC50. Dose-response equation was used for the plot of % Effect vs Log 10 compound concentration with a variable slope and fixing the maximum to 100% and the minimum to 0%.

For test [5], the system named is MEIS1 mRNA. Put plainly: MEIS1 mRNA expression assay (Quantigene Singleplex) in MOLM14 cells.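 Also: MEIS1 transcript levels read by probe hybridization and normalized to RPL28 mRNA, with IC50 fitted to fold changes across a rising compound concentration series.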 In kind it is cell-based, human. To be noted: 48 hours incubation.
Where [6] appears, read: HTRF-30 min incubation IC50, 30 min incubation.
Where [7] appears, read: read-out: HTRF-30 min incubation IC50, 30 min incubation.

A word on the IC50: it is the midpoint of a concentration-inhibition curve.

Where a name gives a salt, the structure may show the parent alone. Read-outs that look alike come from different tables or passages of the source.

Sequence of menin/MLL (terbium chelate-labeled menin, FITC-MBM1 peptide) (O00255 other isoform, or with tags, fused parts or gaps): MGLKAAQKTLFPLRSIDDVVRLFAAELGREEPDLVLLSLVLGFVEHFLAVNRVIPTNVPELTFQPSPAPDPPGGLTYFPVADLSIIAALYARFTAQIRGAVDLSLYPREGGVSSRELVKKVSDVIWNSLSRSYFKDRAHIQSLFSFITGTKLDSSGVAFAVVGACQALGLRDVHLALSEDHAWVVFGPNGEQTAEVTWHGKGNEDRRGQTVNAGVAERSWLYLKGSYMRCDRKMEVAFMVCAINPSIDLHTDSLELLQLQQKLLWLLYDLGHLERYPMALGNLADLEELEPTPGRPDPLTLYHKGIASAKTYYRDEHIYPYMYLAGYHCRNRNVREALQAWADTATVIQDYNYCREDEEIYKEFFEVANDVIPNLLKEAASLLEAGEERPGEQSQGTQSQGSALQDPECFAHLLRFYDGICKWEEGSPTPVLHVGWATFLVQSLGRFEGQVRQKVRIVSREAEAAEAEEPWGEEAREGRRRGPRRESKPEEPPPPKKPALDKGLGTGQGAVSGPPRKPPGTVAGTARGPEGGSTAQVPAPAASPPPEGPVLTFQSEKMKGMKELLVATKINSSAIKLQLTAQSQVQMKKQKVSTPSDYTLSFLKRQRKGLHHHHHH

`CCN(C(=O)c1cc(F)ccc1Oc1nncnc1N1CCC2(C1)CN([C@H](CN)C(C)C)C2)C(C)C` (single isomer, unassigned) [Compound 24, (*S)-2-((5-(2-(1-amino-3-methylbutan-2-yl)-2,6-diazaspiro[3.4]octan-6-yl)-1,2,4-triazin-6-yl)oxy)-N-ethyl-5-fluoro-N-isopropylbenzamide]: the IC50 in test [1] (setting [6]) is 0.97 nM; in test [2] (Homo sapiens, MOLM-14, […]), 690 nM; in test [3] (Homo sapiens, OCI-AML-3, […]), 2680 nM; in test [4] (Homo sapiens, […]), more than 15000 nM; in test [5] (Homo sapiens, MOLM-14, 48 h), approximately 840 nM.
In the case of `CC(C)[C@@H](CCC(N)=O)N1CC2(CCN(c3ncnnc3Oc3ccc(F)cc3-c3cncnc3C3CC3)C2)C1` (single isomer, unassigned) [Compound 43, (*R)-4-(6-(6-(2-(4-cyclopropylpyrimidin-5-yl)-4-fluorophenoxy)-1,2,4-triazin-5-yl)-2,6-diazaspiro[3.4]octan-2-yl)-5-methylhexanamido], the IC50 was 0.55 nM in test [1] (setting [6]); 290 nM in test [2] (Homo sapiens, MOLM-14, […]); 1200 nM in test [3] (Homo sapiens, OCI-AML-3, […]); more than 15000 nM in test [4] (Homo sapiens, […]); approximately 240 nM in test [5] (Homo sapiens, MOLM-14, 48 h).
As for `CCN(C(=O)c1cc(F)ccc1Oc1nnccc1N1CCC2(C1)CN([C@H](CCCN(C)C)C(C)C)C2)C(C)C` (single isomer, unassigned) [Compound 77, (*R)-2-((4-(2-(6-(dimethylamino)-2-methylhexan-3-yl)-2,6-diazaspiro[3.4]octan-6-yl)pyridazin-3-yl)oxy)-N-ethyl-5-fluoro-N-isopropylbenzamide], the concentration for half-maximal inhibition (IC50) stood at 0.51 nM in test [1] (setting [7]); 100 nM in test [2]; 1320 nM in test [3]; 13700 nM in test [4]; 120 nM in test [5].
The like results for `CCN(C(=O)c1cc(F)ccc1Oc1nnccc1N1CCC2(C1)CN([C@@H](CCCN(C)C)C(C)C)C2)C(C)C` (single isomer, unassigned) [Compound 78, (*S)-2-((4-(2-(6-(dimethylamino)-2-methylhexan-3-yl)-2,6-diazaspiro[3.4]octan-6-yl)pyridazin-3-yl)oxy)-N-ethyl-5-fluoro-N-isopropylbenzamide] were, in that order, 3.69 nM, more than 940 nM, 12200 nM, more than 15000 nM and more than 1000 nM.
In the case of `COCCN(C)CCC[C@H](C(C)C)N1CC2(CCN(c3ccnnc3Oc3ccc(F)cc3C(=O)N(C(C)C)C(C)C)C2)C1` (single isomer, unassigned) [Compound 88, (*R)-5-fluoro-N,N-isopropyl-2-((4-(2-(6-((2-methoxyethyl)(methyl)amino)-methylhexan-3-yl)-2,6-diazaspiro[3.4]octan-6-yl)pyridazin-3-yl)oxy)benzamide oxalate], the IC50 in test [1] (setting [6]) was determined as 0.083 nM; in test [2] (Homo sapiens, MOLM-14, […]), 120 nM; in test [3] (Homo sapiens, OCI-AML-3, […]), 810 nM; in test [4] (Homo sapiens, […]), 14000 nM; in test [5] (Homo sapiens, MOLM-14, 48 h), 130 nM.
`COCCN(C)CCC[C@@H](C(C)C)N1CC2(CCN(c3ncnnc3Oc3ccc(F)cc3C(=O)N(C(C)C)C(C)C)C2)C1` (single isomer, unassigned) [Compound 95, (*S)-5-fluoro-N,N-isopropyl-2-((5-(2-(6-((2-methoxyethyl)(methyl)amino)-methylhexan-3-yl)-2,6-diazaspiro[3.4]octan-6-yl)-1,2,4-triazin-6-yl)oxy)benzamide oxalate]: the concentration for half-maximal inhibition (IC50) in test [1] (setting [6]) is 4.98 nM; in test [2] (Homo sapiens, MOLM-14, […]) it was 390 nM; in test [3] (Homo sapiens, OCI-AML-3, […]) it was 1620 nM; in test [4] (Homo sapiens, […]), more than 15000 nM; in test [5] (Homo sapiens, MOLM-14, 48 h), approximately 620 nM.
The like results for `CC(C)[C@H](CCCN(C)C)N1CC2(CCN(c3ncnnc3Oc3ccc(F)cc3C(=O)N(C(C)C)C(C)C)C2)C1` (single isomer, unassigned) [Compound 103, (*S)-2-((5-(2-(6-(dimethylamino)-2-methylhexan-3-yl)-2,6-diazaspiro[3.4]octan-6-yl)-1,2,4-triazin-6-yl)oxy)-5-fluoro-N,N-diisopropylbenzamide fumarate] were, in that order, 2.43 nM, 290 nM, 1360 nM, more than 15000 nM and 420 nM.
The matching figures for `CCN(C(=O)c1cc(F)ccc1Oc1nncnc1N1CCC2(C1)CN([C@H](CCCN(C)C(C)C)C(C)C)C2)C(C)C` (single isomer, unassigned) [Compound 122, (*R)—N-ethyl-5-fluoro-N-isopropyl-2-((5-(2-(6-(isopropyl(methyl)amino)-2-methylhexan-3-yl)-2,6-diazaspiro[3.4]octan-6-yl)-1,2,4-triazin-6-yl)oxy)benzamide fumarate]: 0.065 nM, 21 nM, 150 nM, more than 15000 nM and 34 nM.
With `CCN(C(=O)c1cc(F)ccc1Oc1nncnc1N1CCC2(C1)CN([C@@H](CCCN(C)C(C)C)C(C)C)C2)C(C)C` (single isomer, unassigned) [Compound 123, (*S)—N-ethyl-5-fluoro-N-isopropyl-2-((5-(2-(6-(isopropyl(methyl)amino)-2-methylhexan-3-yl)-2,6-diazaspiro[3.4]octan-6-yl)-1,2,4-triazin-6-yl)oxy)benzamide fumarate], the IC50 in test [1] (setting [6]) was 3.98 nM; in test [2] (Homo sapiens, MOLM-14, […]) it was more than 940 nM; in test [3] (Homo sapiens, OCI-AML-3, […]), 3550 nM; in test [4] (Homo sapiens, […]), more than 15000 nM; in test [5] (Homo sapiens, MOLM-14, 48 h), more than 1000 nM.
For the molecule `CCCN(C)CCC[C@H](C(C)C)N1CC2(CCN(c3ncnnc3Oc3ccc(F)cc3C(=O)N(CC)C(C)C)C2)C1` (single isomer, unassigned) [Compound 127, (*R)—N-ethyl-5-fluoro-N-isopropyl-2-((2-methyl-6-(methyl(propyl)amino)hexan-3-yl)-2,6-diazaspiro[3.4]octan-6-yl)-1,2,4-triazin-6-yl)oxy)benzamide fumarate], the IC50 in test [1] (setting [6]) came to 0.089 nM; in test [2] (Homo sapiens, MOLM-14, […]), 26 nM; in test [3] (Homo sapiens, OCI-AML-3, […]) it was 140 nM; in test [4] (Homo sapiens, […]) it was 11300 nM; in test [5] (Homo sapiens, MOLM-14, 48 h), 44 nM.
The like results for `CCCN(C)CCC[C@@H](C(C)C)N1CC2(CCN(c3ncnnc3Oc3ccc(F)cc3C(=O)N(CC)C(C)C)C2)C1` (single isomer, unassigned) [Compound 128, (*S)—N-ethyl-5-fluoro-N-isopropyl-2-((5-(2-(2-methyl-6-(methyl(propyl)amino)hexan-3-yl)-2,6-diazaspiro[3.4]octan-6-yl)-1,2,4-triazin-6-yl)oxy)benzamide fumarate] were, in that order, 1.64 nM, 630 nM, 1990 nM, 11400 nM and approximately 680 nM.
The matching figures for `CCN(C)CCC[C@@H](C(C)C)N1CC2(CCN(c3ncnnc3Oc3ccc(F)cc3C(=O)N(CC)C(C)C)C2)C1` (single isomer, unassigned) [Compound 133, (*S)—N-ethyl-2-((5-(2-(6-(ethyl(methyl)amino)-2-methylhexan-3-yl)-2,6-diazaspiro[3.4]octan-6-yl)-1,2,4-triazin-6-yl)oxy)-5-fluoro-N-isopropylbenzamide fumarate]: 2.13 nM, more than 940 nM, 3500 nM, more than 15000 nM and more than 1000 nM.
The matching figures for `CC(C)[C@@H](CCCN(C)CCC(=O)N(C)C)N1CC2(CCN(c3ncnnc3Oc3ccc(F)cc3C(=O)N(C(C)C)C(C)C)C2)C1` (single isomer, unassigned) [Compound 145, (*R)-2-((5-(2-(6-((3-(dimethylamino)-3-oxopropyl)(methyl)amino)-2-methylhexan-3-yl)-2,6-diazaspiro[3.4]octan-6-yl)-1,2,4-triazin-6-yl)oxy)-5-fluoro-N,N-diisopropylbenzamide fumarate]: 0.07 nM, 14 nM, 110 nM, more than 15000 nM and 21 nM.

These data come from US12473295B2, “Substituted straight chain spiro derivatives” (Janssen Pharmaceutica NV, priority 2019, dated 2025).
